In patent US10568876B2, “Tetrahydroisoquinoline derivatives useful as inhibitors of diacylglyceride O-acyltransferase 2” (Merck Sharp & Dohme Corp., priority 2014, dated 2020):

Target: hDGAT2 (Homo sapiens (Human), UniProt Q96PD7)
Test: DGAT2 Enzymatic Activity Assay
Assay type: biochemical
Conditions: hDGAT2 Sf-9 membrane prep; 25 μM diolein, 10 μM oleoyl-CoA; triolein product by LC/MS/MS; read-out: IC50 values for inhibition of DGAT2
Outline: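 Membranes from Sf-9 cells expressing untagged hDGAT2 (10 ng/μL) incubated at room temperature with 25 μM diolein and 10 μM oleoyl-CoA in 100 mM Tris pH 7.0, 20 mM MgCl2, 5% ethanol. Triolein product quantified by LC/MS/MS against spiked internal standard; IC50 from 4-parameter sigmoidal fit.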

Chain of hDGAT2 (Q96PD7 whole entry): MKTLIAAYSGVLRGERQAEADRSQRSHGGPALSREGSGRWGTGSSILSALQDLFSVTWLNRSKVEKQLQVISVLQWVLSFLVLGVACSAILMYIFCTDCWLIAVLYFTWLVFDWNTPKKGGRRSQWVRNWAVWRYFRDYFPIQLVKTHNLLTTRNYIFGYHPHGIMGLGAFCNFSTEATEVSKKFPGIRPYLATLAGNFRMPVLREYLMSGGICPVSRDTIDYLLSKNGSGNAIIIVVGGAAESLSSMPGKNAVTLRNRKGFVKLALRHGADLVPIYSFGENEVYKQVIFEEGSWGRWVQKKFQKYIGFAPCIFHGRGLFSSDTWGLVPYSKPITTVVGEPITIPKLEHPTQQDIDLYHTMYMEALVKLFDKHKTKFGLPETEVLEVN

Row | IC50 | SMILES
1 | 247 nM | COC(=O)c1cccc(-c2ccc(CNC(=O)C3CC3c3ccccc3)c3c2CCN(Cc2ccccn2)C3)c1 (stereo not drawn) [Example 94, methyl 3-(8-((2-phenylcyclopropanecarboxamido)methyl)-2-(pyridin-2-ylmethyl)-1,2,3,4-tetrahydroisoquinolin-5-yl)benzoate]
2 | 3780 nM | COC(=O)c1cccc(-c2ccc(CNC(=O)C3CC3c3ccccc3)c3c2CCN(Cc2ncn(C)c2C)C3)c1 (stereo not drawn) [Example 95, methyl 3-(2-((1,5-dimethyl-1H-imidazol-4-yl)methyl)-8-((2-phenylcyclopropanecarboxamido)methyl)-1,2,3,4-tetrahydroisoquinolin-5-yl)benzoate]
3 | 2680 nM | COC(=O)c1cccc(-c2ccc(CNC(=O)C3CC3c3ccccc3)c3c2CCN(Cc2ccc(F)cc2)C3)c1 (stereo not drawn) [Example 98, methyl 3-(2-(4-fluorobenzyl)-8-((2-phenylcyclopropanecarboxamido)methyl)-1,2,3,4-tetrahydroisoquinolin-5-yl)benzoate]
4 | 3900 nM | COC(=O)c1cccc(-c2ccc(CNC(=O)C3CC3c3ccccc3)c3c2CCN(Cc2cccnc2)C3)c1 (stereo not drawn) [Example 99, methyl 3-(8-((2-phenylcyclopropanecarboxamido)methyl)-2-(pyridin-3-ylmethyl)-1,2,3,4-tetrahydroisoquinolin-5-yl)benzoate]
5 | 3470 nM | COC(=O)c1cccc(-c2ccc(CNC(=O)C3CC3c3ccccc3)c3c2CCN(CCC(F)(F)F)C3)c1 (stereo not drawn) [Example 100, methyl 3-(8-((2-phenylcyclopropanecarboxamido)methyl)-2-(3,3,3-trifluoropropyl)-1,2,3,4-tetrahydroisoquinolin-5-yl)benzoate]
6 | 456 nM | CCn1ccnc1CN1CCc2c(-c3cccc(OC(F)(F)F)c3)ccc(CNC(=O)C3C[C@H]3c3nc(C)no3)c2C1 (stereo partly drawn) [Example 102]
7 | 7380 nM | Cc1noc([C@@H]2CC2C(=O)NCc2ccc(-c3cccc(OC(F)(F)F)c3)c3c2CN(CC(=O)N2[C@H](C)COC[C@H]2C)CC3)n1 (stereo partly drawn) [Example 108, (trans)-N-((2-(2-((3R,5R)-3,5-dimethylmorpholino)-2-oxoethyl)-5-(3-(trifluoromethoxy)phenyl)-1,2,3,4-tetrahydroisoquinolin-8-yl)methyl)-2-(3-methyl-1,2,4-oxadiazol-5-yl)cyclopropanecarboxamide]
8 | 3200 nM | COc1cccc(-c2ccc(CNC(=O)C3CC3c3ccccc3)c3c2CCN(c2ncccn2)C3)c1 (stereo not drawn) [Example 110, N-((5-(3-methoxyphenyl)-2-(pyrimidin-2-yl)-1,2,3,4-tetrahydroisoquinolin-8-yl)methyl)-2-phenylcyclopropanecarboxamide]
9 | 2930 nM | COC(=O)c1cccc(-c2ccc(CNC(=O)C3CC3c3ccccc3)c3c2CCN(C(=O)Cc2ccccc2)C3)c1 (stereo not drawn) [Example 112, methyl 3-(2-(2-phenylacetyl)-8-((2-phenylcyclopropanecarboxamido)methyl)-1,2,3,4-tetrahydroisoquinolin-5-yl)benzoate]
10 | 714 nM | COc1cccc(-c2ccc(CNC(=O)C3CC3c3ccccc3)c3c2CCN(C(=O)CC(C)(C)C)C3)c1 (stereo not drawn) [Example 114, N-((2-(3,3-dimethylbutanoyl)-5-(3-methoxyphenyl)-1,2,3,4-tetrahydroisoquinolin-8-yl)methyl)-2-phenylcyclopropanecarboxamide]
11 | 1310 nM | COc1cccc(-c2ccc(CNC(=O)[C@@H]3C[C@H]3c3ccccc3)c3c2CCN(C(=O)C(CO)C(F)(F)F)C3)c1 (stereo partly drawn) [Example 118]

The remaining lines, values behind:

Row | SMILES | IC50
12 | Cc1noc(C2CC2C(=O)NCc2ccc(-c3cccc(OC(F)(F)F)c3)c3c2CN(C(=O)NC2(C)CCS(=O)(=O)C2)CC3)n1 (stereo not drawn) [Example 58, N-(3-methyl-1,1-dioxidotetrahydrothiophen-3-yl)-8-((2-(3-methyl-1,2,4-oxadiazol-5-yl)cyclopropanecarboxamido)methyl)-5-(3-(trifluoromethoxy)phenyl)-3,4-dihydroisoquinoline-2(1H)-carboxamide] | 24 nM
13 | Cc1noc(C2CC2C(=O)NCc2ccc(-c3cccc(OC(F)(F)F)c3)c3c2CN(C(=O)NC2CCS(=O)(=O)C2)CC3)n1 (stereo not drawn) [Example 60, N-(1,1-dioxidotetrahydrothiophen-3-yl)-8-((2-(3-methyl-1,2,4-oxadiazol-5-yl)cyclopropanecarboxamido)methyl)-5-(3-(trifluoromethoxy)phenyl)-3,4-dihydroisoquinoline-2(1H)-carboxamide] | 463 nM
14 | COC(=O)C1CCN(C(=O)N2CCc3c(-c4cccc(OC)c4)ccc(CNC(=O)[C@@H]4C[C@H]4c4ccccc4)c3C2)CC1 [Example 63, methyl 1-(5-(3-methoxyphenyl)-8-(((trans)-2-phenylcyclopropanrcarboxamido)methyl)-1,2,3,4-tetrahydroisoquinoline-2-carbonyl)piperidine-4-carboxylate] | 3090 nM
15 | Cc1noc(C2CC2C(=O)NCc2ccc(-c3cccc(OC(F)(F)F)c3)c3c2CN(C(=O)NC2CCS(=O)(=O)C2)CC3)n1 (stereo not drawn) [Example 76, N-(1,1-dioxidotetrahydrothiophen-3-yl)-8-((2-(3-methyl-1,2,4-oxadiazol-5-yl)cyclopropanecarboxamido)methyl)-5-(3-(trifluoromethoxy)phenyl)-3,4-dihydroisoquinoline-2(1H)-carboxamide] | 238 nM
16 | Cc1noc(C2CC2C(=O)NCc2ccc(-c3cccc(OC(F)(F)F)c3)c3c2CN(C(=O)NC2CCS(=O)(=O)C2)CC3)n1 (stereo not drawn) [Example 78, N-(1,1-dioxidotetrahydrothiophen-3-yl)-8-((2-(3-methyl-1,2,4-oxadiazol-5-yl)cyclopropanecarboxamido)methyl)-5-(3-(trifluoromethoxy)phenyl)-3,4-dihydroisoquinoline-2(1H)-carboxamide] | 892 nM
17 | Cc1noc(C2CC2C(=O)NCc2ccc(-c3cccc(-n4cccn4)c3)c3c2CN(C(=O)N[C@@]2(C)CCS(=O)(=O)C2)CC3)n1 (stereo partly drawn) [Example 79, 5-(3-(1H-pyrazol-1-yl)phenyl)-N-((S)-3-methyl-1,1-dioxidotetrahydrothiophen-3-yl)-8-((2-(3-methyl-1,2,4-oxadiazol-5-yl)cyclopropanecarboxamido)methyl)-3,4-dihydroisoquinoline-2(1H)-carboxamide] | 98 nM
18 | Cc1noc(C2CC2C(=O)NCc2ccc(-c3cccc(OC(F)(F)F)c3)c3c2CN(CC(=O)NC(C)(C)C)CC3)n1 (stereo not drawn) [Example 80, N-((2-(2-(tert-butylamino)-2-oxoethyl)-5-(3-(trifluoromethoxy)phenyl)-1,2,3,4-tetrahydroisoquinolin-8-yl)methyl)-2-(3-methyl-1,2,4-oxadiazol-5-yl)cyclopropanecarboxamide] | 477 nM
19 | CCN(CC)C(=O)CN1CCc2c(-c3cccc(OC(F)(F)F)c3)ccc(CNC(=O)C3CC3c3nc(C)no3)c2C1 (stereo not drawn) [Example 81, N-((2-(2-(diethylamino)-2-oxoethyl)-5-(3-(trifluoromethoxy)phenyl)-1,2,3,4-tetrahydroisoquinolin-8-yl)methyl)-2-(3-methyl-1,2,4-oxadiazol-5-yl)cyclopropanecarboxamide] | 658 nM
20 | Cc1noc(C2CC2C(=O)NCc2ccc(-c3cccc(OC(F)(F)F)c3)c3c2CN(CC(=O)NC2CC2)CC3)n1 (stereo not drawn) [Example 82, N-((2-(2-(cyclopropylamino)-2-oxoethyl)-5-(3-(trifluoromethoxy)phenyl)-1,2,3,4-tetrahydroisoquinolin-8-yl)methyl)-2-(3-methyl-1,2,4-oxadiazol-5-yl)cyclopropanecarboxamide] | 722 nM
21 | Cc1noc(C2CC2C(=O)NCc2ccc(-c3cccc(OC(F)(F)F)c3)c3c2CN(CC(N)=O)CC3)n1 (stereo not drawn) [Example 83, N-((2-(2-amino-2-oxoethyl)-5-(3-(trifluoromethoxy)phenyl)-1,2,3,4-tetrahydroisoquinolin-8-yl)methyl)-2-(3-methyl-1,2,4-oxadiazol-5-yl)cyclopropanecarboxamide] | 1240 nM
22 | COc1ccc(CNC(=O)CN2CCc3c(-c4cccc(OC(F)(F)F)c4)ccc(CNC(=O)C4CC4c4nc(C)no4)c3C2)c(OC)c1 (stereo not drawn) [Example 85, N-((2-(2-((2,4-dimethoxybenzyl)amino)-2-oxoethyl)-5-(3-(trifluoromethoxy)phenyl)-1,2,3,4-tetrahydroisoquinolin-8-yl)methyl)-2-(3-methyl-1,2,4-oxadiazol-5-yl)cyclopropanecarboxamide] | 1540 nM
23 | Cc1noc(C2CC2C(=O)NCc2ccc(-c3cccc(OC(F)(F)F)c3)c3c2CN(CC(=O)NC2CCC2)CC3)n1 (stereo not drawn) [Example 87, N-((2-(2-(cyclobutylamino)-2-oxoethyl)-5-(3-(trifluoromethoxy)phenyl)-1,2,3,4-tetrahydroisoquinolin-8-yl)methyl)-2-(3-methyl-1,2,4-oxadiazol-5-yl)cyclopropanecarboxamide] | 4220 nM
24 | Cc1noc(C2CC2C(=O)NCc2ccc(-c3cccc(OC(F)(F)F)c3)c3c2CN(CC(=O)N[C@H](C)c2ccccc2)CC3)n1 (stereo partly drawn) [Example 88, 2-(3-methyl-1,2,4-oxadiazol-5-yl)-N-((2-(2-oxo-2-(((trans)-1-phenylethyl)amino)ethyl)-5-(3-(trifluoromethoxy)phenyl)-1,2,3,4-tetrahydroisoquinolin-8-yl)methyl)cyclopropanecarboxamide] | 7600 nM
25 | COc1cccc(-c2ccc(CNC(=O)C3CC3c3ccccc3)c3c2CCN(S(C)(=O)=O)C3)c1 (stereo not drawn) [Example 89, N-((5-(3-methoxyphenyl)-2-(methylsulfonyl)-1,2,3,4-tetrahydroisoquinolin-8-yl)methyl)-2-phenylcyclopropanecarboxamide] | 2780 nM
26 | COc1cccc(-c2ccc(CNC(=O)C3CC3c3ccccc3)c3c2CCN(Cc2ccccc2)C3)c1 (stereo not drawn) [Example 90, N-((2-benzyl-5-(3-methoxyphenyl)-1,2,3,4-tetrahydroisoquinolin-8-yl)methyl)-2-phenylcyclopropanecarboxamide] | 4850 nM
27 | COc1cccc(-c2ccc(CNC(=O)C3CC3c3ccccc3)c3c2CCN(CC(F)(F)F)C3)c1 (stereo not drawn) [Example 93, N-((5-(3-methoxyphenyl)-2-(2,2,2-trifluoroethyl)-1,2,3,4-tetrahydroisoquinolin-8-yl)methyl)-2-phenylcyclopropanecarboxamide] | 1220 nM
